Data on 20 compounds can be found in patent US20040067927A1, “Substituted alkyldiamines” (priority 2003, published 2004).

What is called IC50 is the concentration that inhibits the measured activity by half. Lower therefore signals greater potency.

One experiment deals with plasmepsin II (Plasmodium falciparum, UniProt P46925). Put plainly: FRET assay for plasmepsin II. Format: biochemical. To be noted: pH 5, 37° C., 40 min, substrate 1 μM. On the procedure:
The fluorescence resonance energy transfer (FRET) assay for HIV, plasmepsin II, human cathepsin D and human cathepsin E.
The assay conditions were selected according, to reports in the literature. The FRET assay was performed in white polysorp plates (Fluoronunc, cat n° 437842 A). The assay buffer consisted of 50 mM Na acetate pH 5, 12,5% glycerol, 0.1% BSA+392 mM NaCl (for HIV-protease). The incubates per well were composed of:
10 μl inhibitor (in DMSO)
10 μl of the corresponding substrate in DMSO (see table A) to a final concentration of 1 μM
20 μl of enzyme to a final amount of x ng per assay tube (x=10 ng/assay tube plasmepsin II, x=100 ng/assay tube HIV-protease, x=10 ng/assay tube human cathepsin E and x=20 ng/assay tube human cathepsin D)
The reactions were initiated by addition of the enzyme. The assay was incubated at 37° C. for 30 min (for human cathepsin E), 40 min (for plasmepsin II and HIV-protease) or 120 min (for human cathepsin D). The reactions were stopped by adding 10% (v/v) of a 1 M solution of Tris-base. Product-accumulation was monitored by measuring the fluorescence at 460 nm.
Auto-fluorescence of all the test substances is determined in assay buffer in the absence of substrate and enzyme and this value was subtracted from the final signal.

Another experiment deals with P. falciparum. To be noted: cited from earlier work.

Structures are written as SMILES. Square brackets hold non-standard residues; d marks the D form. Peptide text beside a SMILES is read from it. * marks the point of attachment. Sta = CC(C)C[C@H](N)[C@@H](O)CC(=O)O; Isovaleryl = CC(C)CC(=O)*

plasmepsin II, sequence (P46925 125-453): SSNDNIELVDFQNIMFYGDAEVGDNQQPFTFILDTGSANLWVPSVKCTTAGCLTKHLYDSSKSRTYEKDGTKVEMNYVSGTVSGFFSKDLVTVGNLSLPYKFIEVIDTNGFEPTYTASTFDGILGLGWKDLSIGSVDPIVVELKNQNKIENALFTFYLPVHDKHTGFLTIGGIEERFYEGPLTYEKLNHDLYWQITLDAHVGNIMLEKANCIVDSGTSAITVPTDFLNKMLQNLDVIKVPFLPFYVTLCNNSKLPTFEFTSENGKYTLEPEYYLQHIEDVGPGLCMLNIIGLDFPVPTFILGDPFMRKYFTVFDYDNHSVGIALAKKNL

On plasmepsin II, `CCCCCc1ccc(CN(CCN(CCCC)CCCC)Cc2ccc(OCc3ccccc3)cc2)cc1` [Example 20] registered an IC50 of 846 nM.
Consider `CCCCCc1ccc(C(=O)N(CCN(CCCC)CCCC)Cc2ccc(OCc3ccccc3)cc2)cc1` [Example 1], for which the IC50 at plasmepsin II was found to be 115 nM.
Consider `CCCCCc1ccc(C(=O)N(CCN(CCCC)CCCC)Cc2ccc(OCCCC)cc2)cc1` [Example 38], for which the half-inhibitory concentration (IC50) against plasmepsin II stood at 325 nM.
For `CCCCCc1ccc(C(=O)N(CCN(CCCC)CCCC)Cc2ccc(-c3ccccc3Cl)cc2)cc1` [Example 56], 659 nM corresponded to half-maximal inhibition against plasmepsin II (IC50).
`CCCCCc1ccc(C(=O)N(CCN(CCCC)CCCC)Cc2ccc(-c3cccc(OC(F)(F)F)c3)cc2)cc1` [Example 58]: the IC50 on plasmepsin II was 754 nM.
As to `CCCCCc1ccc(C(=O)N(CCN(CCCC)CCCC)Cc2ccc(-c3cncnc3)cc2)cc1` [Example 57], the midpoint of inhibition against plasmepsin II, the IC50, lay at 351 nM.
`CCCCCc1ccc(C(=O)N(CCCN(CCCC)CCCC)Cc2ccc(OCc3ccccc3)cc2)cc1` [Example 51] returned an IC50 against plasmepsin II of 691 nM.
As for `CC(C)CC(=O)N[C@H](C(=O)N[C@H](C(=O)N[C@@H](CC(C)C)[C@@H](O)CC(=O)N[C@@H](C)C(=O)N[C@@H](CC(C)C)[C@@H](O)CC(=O)O)C(C)C)C(C)C` [Pepstatin] (Isovaleryl-VV[Sta]A[Sta]-OH), in the experiment with P. falciparum, the “growth of P. falciparum in red blood cells in vitro” value was “inhibits the growth”.
On to `CCCCCc1ccc(C(=O)N(CCN(CCCC)CCCC)Cc2ccc(-c3ccccc3)cc2)cc1` [Example 23], for which, at plasmepsin II, it took 252 nM to reach half-maximal inhibition (IC50).
On the same count and under the same terms, as for `CCCCCc1ccc(C(=O)N(CCN(CCCC)CCCC)Cc2ccc(Oc3ccccc3)cc2)cc1` [Example 21], the figure is 469 nM.
Compound `CCCCCc1ccc(C(=O)N(CCN(CCCC)CCCC)Cc2ccc(OCc3ccccc3)c(OCc3ccccc3)c2)cc1` [Example 22] showed an IC50 at plasmepsin II of 858 nM.
`CCCCCc1ccc(C(=O)N(CCN(CCCC)CCCC)Cc2ccc(-c3ccccc3F)cc2)cc1` [Example 54] had an IC50 against plasmepsin II of 312 nM.
In turn, `CCCCCc1ccc(C(=O)N(CCN(CCCC)CCCC)Cc2ccc(-c3ccc(OCCO)cc3)cc2)cc1` [Example 53] came in with an IC50 on plasmepsin II of 125 nM.
Same read-out and setting: as for `CCCCCc1ccc(C(=O)N(CCCN(CCCC)CCCC)Cc2ccc(-c3ccccc3)cc2)cc1` [Example 52], the figure is 834 nM.
With `CCCCCc1ccc(C(=O)N(CCN(CCCC)CCCC)Cc2ccc(-c3ccccn3)cc2)cc1` [Example 59], it took 380 nM to reach half-maximal inhibition at plasmepsin II (IC50).
The compound `CCCCCc1ccc(C(=O)N(CCN(CCO)CCO)Cc2ccc(OCC)cc2)cc1` [Example 69] came in with an IC50 against plasmepsin II of 8230 nM.
Compound `CCCCCc1ccc(C(=O)N(CCN(CCCC)CCCC)Cc2ccc(-c3ccc4c(c3)OCO4)cc2)cc1` [Example 61] displayed an IC50 at plasmepsin II of 57 nM.
The same measure, in the same setting: as for `CCCCCc1ccc(CN(CCN(CCCC)CCCC)Cc2ccc(-c3ccc(C#N)cc3)cc2)cc1` [Example 68], the figure is 714 nM; as for `CCCCCc1ccc(C(=O)N(CCN(CCCC)CCCC)Cc2ccc(-c3ccc(CC(=O)OC)cc3)cc2)cc1` [Example 60], 198 nM; as for `CCCCCc1ccc(C(=O)N(CCN(CCCC)CCCC)Cc2ccc(C(F)(F)F)cc2)cc1` [Example 25], 596 nM.
